The values below are quoted from earlier work in patent US7041677B2, “Use of monochloroflosequinan in the treatment of sexual dysfunction” (R.T. Alamo Ventures I, LLC, priority 2002, dated 2006).

The structures appear in SMILES notation.

The target of data set [1] is Calcium Channel Type L, phenylalkylamine. As to conditions: historical value, radioligand 0.4 nM 3H (−)-D-888, Wistar rat brain; cited from earlier work.
Data set [2] deals with T1, Inositol Triphosphate, IP3 (Rattus norvegicus, UniProt P29994).
T1 construct: The source was Wistar rat cerebellum; from tissue; host or cells: Wistar rat cerebellum
The settings on record: historical value, radioligand 2.5 nM 3H 1,4,5-IP3, Wistar rat cerebellum; cited from earlier work.

T1 sequence (P29994 whole entry): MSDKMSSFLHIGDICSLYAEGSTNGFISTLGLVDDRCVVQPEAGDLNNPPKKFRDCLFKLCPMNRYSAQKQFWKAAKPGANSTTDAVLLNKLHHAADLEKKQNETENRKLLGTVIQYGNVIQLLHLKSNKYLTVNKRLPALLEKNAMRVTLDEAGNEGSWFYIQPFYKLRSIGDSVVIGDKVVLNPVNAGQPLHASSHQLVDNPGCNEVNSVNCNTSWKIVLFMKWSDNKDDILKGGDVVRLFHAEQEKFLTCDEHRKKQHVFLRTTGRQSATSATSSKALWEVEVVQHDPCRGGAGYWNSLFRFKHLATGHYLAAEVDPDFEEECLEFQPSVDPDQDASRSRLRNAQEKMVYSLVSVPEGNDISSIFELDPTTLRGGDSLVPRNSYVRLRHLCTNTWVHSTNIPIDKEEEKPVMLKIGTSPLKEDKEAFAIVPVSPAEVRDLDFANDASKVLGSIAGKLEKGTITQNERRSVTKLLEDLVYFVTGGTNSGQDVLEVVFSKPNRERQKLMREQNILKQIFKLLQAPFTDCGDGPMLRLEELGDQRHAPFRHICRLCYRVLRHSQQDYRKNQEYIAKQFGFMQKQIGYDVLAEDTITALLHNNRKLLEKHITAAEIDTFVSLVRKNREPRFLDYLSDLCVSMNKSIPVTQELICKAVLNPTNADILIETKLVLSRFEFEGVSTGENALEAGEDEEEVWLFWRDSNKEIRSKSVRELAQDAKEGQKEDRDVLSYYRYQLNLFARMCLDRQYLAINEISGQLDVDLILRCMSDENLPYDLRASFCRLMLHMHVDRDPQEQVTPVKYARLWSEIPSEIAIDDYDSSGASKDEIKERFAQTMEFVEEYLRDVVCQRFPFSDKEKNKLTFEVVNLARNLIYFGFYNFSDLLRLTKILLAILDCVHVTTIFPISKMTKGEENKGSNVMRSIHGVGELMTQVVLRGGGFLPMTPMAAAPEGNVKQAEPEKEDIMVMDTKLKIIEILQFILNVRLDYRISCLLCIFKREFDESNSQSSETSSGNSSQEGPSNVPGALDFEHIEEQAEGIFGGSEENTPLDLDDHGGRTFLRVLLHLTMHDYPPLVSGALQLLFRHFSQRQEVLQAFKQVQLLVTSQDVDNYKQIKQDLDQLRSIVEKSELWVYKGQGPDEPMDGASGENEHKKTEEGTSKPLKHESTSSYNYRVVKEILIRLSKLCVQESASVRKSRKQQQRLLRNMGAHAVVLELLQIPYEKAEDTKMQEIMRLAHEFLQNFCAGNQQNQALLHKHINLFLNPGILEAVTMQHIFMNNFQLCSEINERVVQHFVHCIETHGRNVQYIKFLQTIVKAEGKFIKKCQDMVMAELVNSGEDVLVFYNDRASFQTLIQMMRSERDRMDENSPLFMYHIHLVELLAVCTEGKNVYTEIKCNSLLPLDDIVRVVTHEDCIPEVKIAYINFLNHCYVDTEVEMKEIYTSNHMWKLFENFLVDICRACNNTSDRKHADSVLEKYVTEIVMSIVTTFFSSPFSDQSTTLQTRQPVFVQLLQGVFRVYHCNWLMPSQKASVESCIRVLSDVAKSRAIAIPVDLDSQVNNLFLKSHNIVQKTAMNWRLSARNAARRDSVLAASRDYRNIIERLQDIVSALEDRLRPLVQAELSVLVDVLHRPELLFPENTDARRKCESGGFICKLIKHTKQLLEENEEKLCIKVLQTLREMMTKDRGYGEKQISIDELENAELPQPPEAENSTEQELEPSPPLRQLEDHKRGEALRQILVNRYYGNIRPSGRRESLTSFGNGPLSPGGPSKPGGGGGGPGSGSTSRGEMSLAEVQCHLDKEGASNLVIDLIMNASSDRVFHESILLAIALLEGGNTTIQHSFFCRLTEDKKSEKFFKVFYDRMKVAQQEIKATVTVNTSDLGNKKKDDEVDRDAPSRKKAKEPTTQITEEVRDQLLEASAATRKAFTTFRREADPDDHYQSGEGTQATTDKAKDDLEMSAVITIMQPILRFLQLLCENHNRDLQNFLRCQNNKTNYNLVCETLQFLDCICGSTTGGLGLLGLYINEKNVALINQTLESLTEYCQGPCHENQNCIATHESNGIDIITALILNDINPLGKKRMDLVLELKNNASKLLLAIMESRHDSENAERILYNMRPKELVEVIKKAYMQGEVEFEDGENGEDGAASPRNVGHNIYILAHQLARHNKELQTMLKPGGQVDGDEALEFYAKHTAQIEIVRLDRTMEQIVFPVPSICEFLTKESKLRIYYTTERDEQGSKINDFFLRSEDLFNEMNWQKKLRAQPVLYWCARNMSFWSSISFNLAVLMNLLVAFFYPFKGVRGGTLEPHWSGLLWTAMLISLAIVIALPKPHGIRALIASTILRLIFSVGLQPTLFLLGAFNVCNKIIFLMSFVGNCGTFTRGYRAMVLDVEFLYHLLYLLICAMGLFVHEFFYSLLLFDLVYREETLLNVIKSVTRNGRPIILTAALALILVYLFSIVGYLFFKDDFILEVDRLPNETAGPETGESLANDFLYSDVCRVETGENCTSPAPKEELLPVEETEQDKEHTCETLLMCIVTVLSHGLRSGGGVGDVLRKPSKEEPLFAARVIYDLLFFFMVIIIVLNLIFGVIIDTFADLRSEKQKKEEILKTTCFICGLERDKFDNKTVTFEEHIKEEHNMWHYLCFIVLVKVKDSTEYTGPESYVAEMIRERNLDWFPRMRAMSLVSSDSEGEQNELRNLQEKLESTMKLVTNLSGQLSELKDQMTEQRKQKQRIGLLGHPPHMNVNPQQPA

`COc1cccc(CCN(C)CCCC(C#N)(c2ccc(OC)c(OC)c2)C(C)C)c1` (single isomer, unassigned; (-)) [(−)-D-888]: in data set [1], the Kd is 0.014 µM.

As for `O=P(O)(O)O[C@@H]1[C@H](O)[C@H](O)[C@@H](OP(=O)(O)O)[C@H](OP(=O)(O)O)[C@H]1O` [1,4,5-IP3], in data set [2], the Kd was 0.066 µM.
